Values of other authors as cited in patent US7208523B2, “Alanine- and glycine-containing therapeutic agent for hepatitis” (Ajinomoto Co., Inc., priority 2000, dated 2007).

Conditions: oral administration of glycine or alanine alone; galactosamine intraabdominal

Structure (SMILES) | inhibition of hepatopathy caused by galactosamine
C[C@H](N)C(=O)O [alanine] | inhibits
NCC(=O)O [glycine] | inhibits
